Measurements as given in patent US20240398801A1, “TREATMENT OF LEUKEMIA BASED ON LEUKEMIA HIERARCHY IN A PATIENT” (UNIVERSITY HEALTH NETWORK, priority 2021, published 2024).

What was measured:
primary AML samples [1] = experiment: Association of LinClass-7 / LSC17 score with ex vivo drug sensitivity in primary AML drug screens; format: cell-based, human
Procedure: Ex vivo drug response in BEAT-AML samples was measured through the Area Under the dose-response Curve (AUC) metric, wherein a low AUC corresponds to sensitivity while a high AUC corresponds to resistance. AUC values were scaled and multiplied by −1 to represent sensitivity in each treatment condition. Pearson correlation was used to measure association between cell type abundance and drug sensitivities, following recommendations from a benchmarking study by Smirnov et al^97. Associations were depicted using the R package “corrplot”, and drug sensitivity volcano plots were generated using the R package “EnhancedVolcano”. For associations of cell type abundance with clinical and biological features, absolute cell type abundance was always used and pearson correlations were calculated unless otherwise specified.
To derive the LinClass-7 score, logCPM-normalized expression of 16 genes from the LSC17 assay were used as input features for LASSO regression: DNMT3B, GPR56, NGFRAP1, CD34, DPYSL3, SOCS2, MMRN1, KIAA0125, EMP1, NYNRIN, LAPTM4B, CDK6, AKR1C3, ZBTB46, CPXM1, ARHGAP22. The 17th gene, C19orf77, was excluded due to lack of expression data in the Leucegene cohort. LASSO regression was performed on negative PC2 (high in Primitive and low in Mature) with leave-one-out cross validation using the LassoCV function from scikit-learn with a path length of 0.1. Patients from TCGA and Leucegene were combined into a training set, and patients from BEAT-AML were used as a validation set to evaluate the strength of the association between LinClass-7 and PC2.

AML = experiment: Subgroup analysis of the ALFA-0701 trial by LinClass-7 score; format: in vivo, human
human AML cells = experiment: Changes in cell type composition after drug treatment (deconvolution of RNA-seq from preclinical studies); format: cell-based
Description: To identify RNA-seq datasets collected from AML samples before and after drug treatment, Applying the search terms “Acute Myeloid Leukemia” and “AML” with the “Homo sapien” and “RNA-sequencing” flags on Gene Expression Omnibus (GEO) and ArrayExpress, we identified 95 datasets posted before Jun. 17, 2021. From these, 53 were inhibitors that met the inclusion criteria of human AML samples with available RNA-sequencing data collected before and after drug treatment. Datasets with only differential expression results or Bigwig files were excluded. Datasets with less than three samples in each treatment group were also excluded, resulting in a total of 47 datasets included in the final analysis. Each dataset was processed and underwent TPM normalization and deconvolution with CIBERSORTx using a signature matrix of seven malignant cell types (LSPC-Quiescent, LSPC-Primed, LSPC-Cycle, GMP-like, ProMono-like, Mono-like, cDC-like). For quality control among cell line samples, the deconvolution correlation values from each sample across every dataset were compared and the jenks natural breaks algorithm was employed to identify cutoffs demarcating low, medium, and high correlation bins. Cell line samples classified as “low-correlation” with a correlation value below 0.437 were excluded from further analysis, leaving 42 datasets spanning 153 treatment conditions.
Relative changes in cell type abundance in each treatment condition were evaluated using Wilcoxon rank-sum tests for technical replicates or Wilcoxon signed-rank tests for biological replicates with paired treatment conditions. For dimensionality reduction with UMAP, we focused exclusively on changes in cell type abundance where the p-value was <0.05 to emphasize the key changes in cell type composition induced by each drug, resulting in 125 treatment conditions spanning 38 studies. Absolute log p-values were used to represent the magnitude of shift in cell type abundance, and cell type changes where p>0.05 were assigned a magnitude of zero. […]

AML engraftment = experiment: Patient-derived xenograft (PDX) response of AML patient samples to fedratinib, CC-90009 or their combination; format: in vivo, NOD.SCID mice; settings: for response rate: PDX
Procedure: Using normalized malignant cell type composition data for 46 patient samples used for in vivo fedratinib or CC-90009 treatment, dimensionality reduction was performed and clustering was assigned using the leiden algorithm with a resolution of 0.7, yielding three clusters: Primitive, Mature, Intermediate/GMP. […] Samples were subsequently projected on the reference map for visualization and confirmation of cluster assignments.
Patient samples were classified into response categories by comparing the relative reduction (RR) of AML engraftment in drug-treated mice versus vehicle-treated mice, as per Galkin et al 98. RR was calculated as: ((mean % engraftment in control mice)−(mean % engraftment in drug treated mice))/(mean % engraftment in control mice). Patient samples were classified as Responders if RR in the injected femur (Right Femur, RF) was >50%, classified as Partial Responders if we observed 20 to 50% RR in the RF or >20% in the non-injected femur (Bone Marrow, BM) only, and classified as Non-Responders if there was no statistically significant difference in engraftment levels between control- and drug-treated mice, or if RR was <20% in both RF and BM.
Samples with unknown NPM1 mutation status were subsequently assigned as NPM1 mutant or NPM1 wild-type according to their cluster membership.
NOD.SCID mice were bred and housed in the University Health Network (UHN) animal care facility and all animal experiments were performed in accordance with guidelines approved by the UHN animal care committee. Ten-week-old NOD.SCID mice were irradiated (225 cGy) and pretreated with anti-CD122 antibody (200 μg per mouse), 24 hours prior to transplantation. Viably frozen mononucleated cells from AML patients were thawed, counted, and intrafemorally injected at the dose of 5 million cells per mouse. At day 21 post transplantation, treatment of either CC-90009 or Fedratinib alone with vehicle, or in combination, was initiated twice a day for 2 weeks. CC-90009 was given by intraperitoneal (IP) injections at the dose of 2.5 mg/kg and Fedratinib was dissolved in 0.5% methylcellulose and orally gavaged at 60 mg/kg. Following treatment, levels of AML engraftment were assessed to determine the efficacy of drug treatment against the disease in the mice. Cells collected from the injected right femur, non-injected bone marrow of each individual mouse were stained with human specific antibodies and evaluated by flow cytometry. Antibodies used for assessment of human AML engraftment include: CD45-APC, CD33-PE-Cy5, CD19-V450, CD34-APC-Cy7, CD15-FITC (BD), CD33-PE-Cy5, and CD14-PE (Beckman Coulter).

primary AML samples [2] = experiment: Selinexor in vivo treatment of primary AML samples, cell type abundance by RNA-seq deconvolution; set-up: species or system NSG mice; settings: primary AML samples treated in vivo
Procedure: RNA was extracted from bulk peripheral blood mononuclear cells using an RNeasy Micro Kit (Qiagen). Libraries were constructed using SMART-Seq (Clonetec). A paired-end 50-base-pair flow-cell lane Illumina HiSeq 2000 yielded an average of 240 million aligned reads per sample. To align RNA-seq reads from samples used in selinexor and fedratinib treatments, Illumina paired-end sequence data were analyzed with BWA/v0.6 alignment software with option (-s) to disable Smith-Waterman alignment. Reads were mapped onto GRCh37-lite reference genome and exon-exon junction reference whose coordinates were defined based on transcript annotations in Ensembl/v59. Reads with mapping quality <10 were discarded and duplicate reads were tagged using the Picard's MarkDuplicates program. JAGuaR 2.1 was used to incorporate reads spanning multiple exons into the alignment by introducing large alignment gaps. All transcripts of a given gene were collapsed into a single gene model such that exonic bases were the union of exonic bases that belonged to all known transcripts of the gene. Read counts and subsequently RPKM counts were obtained by counting the fraction of each read that overlapped with an exonic region for that gene. To align RNA-seq reads from functionally annotated LSC fractions, sequence data was aligned against GRCh38 and transcript sequences downloaded from Ensembl build 90 using STAR 2.5.2a. […]

[3] = added to standard chemotherapy vs chemotherapy alone, LinClass-7 low (mature) AML
[4] = AMLs with Intermediate/GMP hierarchies
[5] = AMLs with Primitive hierarchies

## CC1(C)CCC(c2ccc(Cl)cc2)=C(CN2CCN(c3ccc(C(=O)NS(=O)(=O)c4ccc(N[C@H](CCN5CCOCC5)CSc5ccccc5)c(S(=O)(=O)C(F)(F)F)c4)cc3)CC2)C1 [Navitoclax]
Primary AML samples [1]; split by LSC17
  difference in ex vivo sensitivity between patient samples with high and low score: no significant difference
Primary AML samples [1]; split by LinClass-7
  difference in ex vivo sensitivity between patient samples with high and low score: stark differences

## Gemtuzumab Ozogamicin [GO]
AML; [3]
  event-free survival: significantly longer
  relapse-free survival: significantly longer
AML; added to standard chemotherapy, LinClass-7 high primitive AML
  survival benefit: no significant survival benefit
AML; added to standard chemotherapy, LinClass-7 low (mature) AML
  overall survival: did not extend

## Cc1c(-c2ccc(-c3ccccc3F)cc2)nc2ccc(F)cc2c1C(=O)O [Brequinar]
Human AML cells; accompanying induced differentiation
  Quiescent LSPC abundance after treatment: reduction

## FC(F)(F)c1ccc(/C=C/c2nc(COc3ccc(CCCCn4ccnn4)cc3)co2)cc1 [Mubritinib]
Primary AML samples [1]; drug screens of Tyner et al and Lee et al
  blasts targeted, from correlation of LinClass-7 score with drug sensitivity: primitive blasts
Primary AML samples [1]; split by LSC17
  difference in ex vivo sensitivity between patient samples with high and low score: no significant difference
Primary AML samples [1]; split by LinClass-7
  difference in ex vivo sensitivity between patient samples with high and low score: stark differences

## O=C1CCC(N2Cc3cc(CNC(=O)C(F)(F)c4ccc(Cl)cc4)ccc3C2=O)C(=O)N1 (stereo not drawn) [CC-90009]
AML engraftment; [4]
  response rate: 83%
AML engraftment; AMLs with Mature hierarchies
  response rate: 88%
AML engraftment; [5]
  response rate: 40%
AML engraftment; Primitive AMLs lacking NPM1c mutation and ETC signatures
  response among Primitive AMLs: favorable response
AML engraftment; Primitive AMLs with NPM1c mutations and electron transport chain signatures
  response among Primitive AMLs: poor response

## Cc1cnc(Nc2ccc(OCCN3CCCC3)cc2)nc1Nc1cccc(S(=O)(=O)NC(C)(C)C)c1 [fedratinib]
AML engraftment; [4]
  response rate: 20%
AML engraftment; AMLs with Mature hierarchies
  response rate: 88%
AML engraftment; [5]
  response rate: 46%

## CC1=C(/C=C/C(C)=C/C=C/C(C)=C/C(=O)O)C(C)(C)CCC1 [ATRA]
Human AML cells
  blast population from which differentiation is induced: predominantly from GMP-like blasts

## O=C(/C=C\n1cnc(-c2cc(C(F)(F)F)cc(C(F)(F)F)c2)n1)NNc1cnccn1 [Selinexor]
Human AML cells; primary AML samples treated in vitro
  Cycling LSPC population after treatment: depletion
Primary AML samples [2]
  Cycling LSPC population after treatment: depletion
